Values of other authors, collected in patent publication US20250333373A1, “L-2-Amino-4-Halobutyric Acid Derivative-L-Tartrate and Preparation Method Thereof” (Vulpes Agricultural Corp., priority 2022, published 2025).

Conditions: for herbicidal effect: isomers of racemic glufosinate

Row | SMILES | herbicidal effect | herbicidal activity relative to common glufosinate (versus common (racemic) glufosinate)
1 | CP(=O)(O)CC[C@H](N)C(=O)O [L-glufosinate] | has an herbicidal effect | twice
2 | CP(=O)(O)CC[C@@H](N)C(=O)O [D] | almost inactive | –
